The source made the active and inactive calls. The calls are words filed in the database; no cut-off is given here. Where only a bound is given, the exact number is not on record here.

The target in assay [1] is T1, Beta-galactoside alpha-2,6-sialyltransferase 1 (Homo sapiens, UniProt P15907).
T1 sequence (P15907 whole entry): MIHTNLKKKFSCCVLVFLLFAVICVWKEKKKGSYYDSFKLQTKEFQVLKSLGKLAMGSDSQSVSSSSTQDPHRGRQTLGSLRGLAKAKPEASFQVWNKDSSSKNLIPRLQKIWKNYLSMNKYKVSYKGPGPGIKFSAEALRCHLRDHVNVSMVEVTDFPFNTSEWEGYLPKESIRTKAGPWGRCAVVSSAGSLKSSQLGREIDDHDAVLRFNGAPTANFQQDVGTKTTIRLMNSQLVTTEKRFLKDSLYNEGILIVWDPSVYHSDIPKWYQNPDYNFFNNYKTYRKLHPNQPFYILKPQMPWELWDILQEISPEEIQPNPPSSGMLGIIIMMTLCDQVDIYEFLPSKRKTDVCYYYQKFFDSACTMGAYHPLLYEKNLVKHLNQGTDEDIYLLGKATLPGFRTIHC
As to the kind of experiment: Inhibition of human ST6GAL1 in the Galbeta1,4GlcNAcbeta-4,5-dimethoxy-2-nitrobenzyl.

The target in assay [2] is T2, CMP-N-acetylneuraminate-beta-galactosamide-alpha-2,3-sialyltransferase 1 (Homo sapiens, UniProt Q11201).
T2 sequence (Q11201 whole entry): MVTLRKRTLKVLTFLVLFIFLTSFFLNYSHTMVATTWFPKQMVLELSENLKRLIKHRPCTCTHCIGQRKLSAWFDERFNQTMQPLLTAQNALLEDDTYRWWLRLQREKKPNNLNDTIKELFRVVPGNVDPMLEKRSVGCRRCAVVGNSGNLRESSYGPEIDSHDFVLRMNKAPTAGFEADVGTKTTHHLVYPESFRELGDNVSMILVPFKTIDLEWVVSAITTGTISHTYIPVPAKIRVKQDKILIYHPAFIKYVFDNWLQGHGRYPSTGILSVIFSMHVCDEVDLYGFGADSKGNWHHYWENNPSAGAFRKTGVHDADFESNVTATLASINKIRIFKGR
The experiment in a line: Inhibition of ST3GAL1 (unknown origin).

In assay [3] the target is T3, CMP-N-acetylneuraminate-beta-1,4-galactoside alpha-2,3-sialyltransferase (Homo sapiens, UniProt Q11203).
T3 sequence (Q11203 whole entry): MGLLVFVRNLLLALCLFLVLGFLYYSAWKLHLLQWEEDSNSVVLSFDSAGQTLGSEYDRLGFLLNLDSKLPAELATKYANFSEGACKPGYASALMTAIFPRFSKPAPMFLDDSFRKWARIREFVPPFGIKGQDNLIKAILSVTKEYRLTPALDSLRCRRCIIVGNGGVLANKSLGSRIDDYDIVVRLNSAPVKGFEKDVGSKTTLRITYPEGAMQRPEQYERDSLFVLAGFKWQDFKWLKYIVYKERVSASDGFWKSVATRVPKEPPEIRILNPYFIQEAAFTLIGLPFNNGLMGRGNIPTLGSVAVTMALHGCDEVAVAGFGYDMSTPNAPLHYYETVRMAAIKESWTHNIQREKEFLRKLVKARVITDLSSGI
The experiment in a line: Inhibition of ST3GAL3 (unknown origin).

Assay [4] has as its target T1, Beta-galactoside alpha-2,6-sialyltransferase 1. The experiment in a line: Inhibition of ST6GAL1 (unknown origin).
Assay [5] has the same target. The experiment in a line: Inhibition of recombinant human N-terminal His tagged ST6GAL1 (44 to 406 residues) by UPLC-based assay.
Assay [6] has as its target T4, Beta-galactoside alpha-2,6-sialyltransferase 1 (Homo sapiens) (UniProt P15907).
T4 sequence (whole entry): T1 sequence (P15907 whole entry)
As to the kind of experiment: Inhibition of recombinant human N-terminal His tagged ST6GAL1 (44 to 406 residues) at 50 uM by UPLC-based assay relative to control.

Assay [7] has as its target T5, Sialyltransferase ST3Gal-I (Rattus norvegicus) (UniProt Q6H8N0).
T5 sequence (whole entry): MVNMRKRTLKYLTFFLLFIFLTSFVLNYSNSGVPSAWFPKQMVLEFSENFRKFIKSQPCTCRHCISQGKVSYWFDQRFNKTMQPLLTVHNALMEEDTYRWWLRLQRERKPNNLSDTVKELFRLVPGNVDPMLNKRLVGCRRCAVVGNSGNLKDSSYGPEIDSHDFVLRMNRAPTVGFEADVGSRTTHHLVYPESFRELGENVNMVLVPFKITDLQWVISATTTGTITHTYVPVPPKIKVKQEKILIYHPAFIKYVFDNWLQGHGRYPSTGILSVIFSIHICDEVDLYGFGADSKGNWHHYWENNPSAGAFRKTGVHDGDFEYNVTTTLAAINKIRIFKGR
As to the kind of experiment: Inhibition of rat ST3GAL1 at 500 uM by UPLC-based assay relative to control.

For assay [8], the target named is T6, Sialyltransferase ST3Gal-I (Rattus norvegicus, UniProt Q6H8N0).
T6 sequence (Q6H8N0 whole entry): T5 sequence (whole entry)
The experiment in a line: Inhibition of rat ST3GAL1 by UPLC-based assay.

The target in assay [9] is T5, Sialyltransferase ST3Gal-I (Rattus norvegicus). The experiment in a line: Inhibition of rat ST3GAL1 at 1000 uM by UPLC-based assay relative to control.
Assay [10] has as its target T7, CMP-N-acetylneuraminate-beta-galactosamide-alpha-2,3-sialyltransferase 1 (Mus musculus, UniProt P54751).
T7 sequence (P54751 whole entry): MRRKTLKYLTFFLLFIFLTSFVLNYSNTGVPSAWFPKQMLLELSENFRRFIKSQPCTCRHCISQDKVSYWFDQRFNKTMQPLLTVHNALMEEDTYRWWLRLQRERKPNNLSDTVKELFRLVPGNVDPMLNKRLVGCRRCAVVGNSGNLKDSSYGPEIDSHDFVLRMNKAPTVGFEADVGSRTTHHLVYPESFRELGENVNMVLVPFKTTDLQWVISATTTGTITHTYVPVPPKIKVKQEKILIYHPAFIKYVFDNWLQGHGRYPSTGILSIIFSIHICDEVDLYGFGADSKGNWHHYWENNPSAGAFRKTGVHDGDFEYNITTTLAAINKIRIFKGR
As to the kind of experiment: Inhibition of mouse brain ST3Gal1 expressed in COS-7 cells using CMP-[14C]NeuAc as substrate assessed as inhibition of constant incubated for 30 mins in presence of Galbeta1,3GalNAcOBzl by Lineweaver-Burk plot analysis.

For assay [11], the system named is MDA-MB-231. As to the kind of experiment: Antiproliferative activity against human MDA-MB-231 cells assessed as cell viability at 80 uM by MTT assay. Format: functional, cell-based.
Assay [12] deals with MDA-MB-231. As to the kind of experiment: Antimigratory activity against human MDA-MB-231 cells at 60 uM incubated for 16 hrs by transwell migration assay. The assay is classed as functional, cell-based.
The nature of assay [13]: Selectivity index, ratio of IC50 for inhibition of rat ST3GAL1 to IC50 for inhibition of human ST6GAL1.
The test system of assay [14] is MDA-MB-231. As to the kind of experiment: Inhibition of cell invasion in human MDA-MB-231 cells assessed as reduction in cell adhesion at 60 uM after 48 hrs. The assay is classed as functional, cell-based.
In assay [15] the test system is MDA-MB-231. The experiment in a line: Inhibition of cell invasion in human MDA-MB-231 cells assessed as reduction in cell adhesion to collagen IV at 60 uM incubated for 48 hrs. The assay is classed as functional, cell-based.
The subject of assay [16] is MDA-MB-231. The experiment in a line: Inhibition of cell invasion in human MDA-MB-231 cells assessed as reduction in cell adhesion to fibronectin at 60 uM incubated for 24 hrs. The assay is classed as functional, cell-based.

On to `C[C@H](CCC(=O)O)[C@H]1CC[C@H]2[C@@H]3CC[C@@H]4C[C@H](OC(=O)[C@@H](N)CC(=O)O)CC[C@]4(C)[C@H]3CC[C@]12C`, for which, in assay [1], inhibition was half-maximal at 17 µM (IC50).

As for `C[C@H](CCC(=O)O)[C@H]1CC[C@H]2[C@@H]3CC[C@@H]4C[C@H](OC(=O)[C@H](CC(=O)O)Nc5ccc([N+](=O)[O-])c6nonc56)CC[C@]4(C)[C@H]3CC[C@]12C`, the concentration for half-maximal inhibition (IC50) in assay [2] stood at 13 µM; in assay [3], 0.88 µM; in assay [4], 1.5 µM.

With `C[C@H](CCC(=O)NCCS(=O)(=O)O)[C@H]1CC[C@H]2[C@@H]3CC[C@@H]4C[C@H](O)CC[C@]4(C)[C@H]3C[C@H](O)[C@]12C` [TAURODEOXYCHOLIC ACID], the IC50 is more than 50 µM in [5] and more than 500 µM in assay [8]. Moreover, the inhibition stood at 0% in assay [6] and 3% in assay [7].

Regarding `C[C@H](CCC(=O)O)[C@H]1CC[C@H]2[C@@H]3CC[C@@H]4C[C@H](OS(=O)(=O)O)CC[C@]4(C)[C@H]3CC[C@]12C`, the figures for the IC50 in [5] and in assay [8] were more than 50 µM and 500 µM, respectively. Moreover, the inhibition in [6] was found to be 0%; in [7] it was 23%; in assay [9], 82%.

Consider `C[C@H](CCC(=O)O)[C@H]1CC[C@H]2[C@@H]3[C@@H](O)C[C@@H]4C[C@H](O)CC[C@]4(C)[C@H]3CC[C@]12C` [URSODIOL], for which the IC50 in assay [5] was more than 50 µM; in assay [8] it was more than 500 µM. Besides, the inhibition in assay [6] amounted to 0%; in assay [7], 3%.

As to `C[C@@H]1O[C@@H](O[C@H]2[C@H](O[C@H]3[C@H](O[C@H]4CC[C@@]5(C)[C@@H](CC[C@]6(C)[C@@H]5CC=C5[C@@H]7CC(C)(C)C[C@@H](O)[C@]7(C)CC[C@]56C)[C@@]4(C)CO)O[C@H](C(=O)O)[C@@H](O)[C@@H]3O)O[C@H](CO)[C@H](O)[C@@H]2O)[C@H](O)[C@H](O)[C@H]1O` [SOYASAPONIN I], the Ki in assay [10] worked out at 2.3 µM.

Consider `C[C@H](CCC(=O)O)[C@H]1CC[C@H]2[C@@H]3CC[C@@H]4C[C@H](O)CC[C@]4(C)[C@H]3CC[C@]12C` [LITHOCHOLIC ACID], for which the IC50 was more than 50 µM in assay [5] and 500 µM in assay [8]. Also, the results for the inhibition in assay [6], in [7] and in [9] were 0%, 53% and 64%, respectively.

With `C[C@H](CCCS(=O)(=O)O)[C@H]1CC[C@H]2[C@@H]3CC[C@@H]4C[C@H](OS(=O)(=O)O)CC[C@]4(C)[C@H]3CC[C@]12C`, the IC50 in assay [5] is more than 50 µM; in [8], 500 µM. Also, the inhibition in assay [6] came out at 0%; in [7], 35%; in assay [9], 100%. In addition, in assay [11], the result was Active.

For the compound `C[C@H](CCC(=O)O)[C@H]1CC[C@H]2[C@@H]3[C@H](O)C[C@@H]4C[C@H](O)CC[C@]4(C)[C@H]3CC[C@]12C` [CHENODIOL], the half-inhibitory concentration (IC50) in assay [5] was more than 50 µM; in assay [8], more than 500 µM. Besides, the results for the inhibition in assay [6] and in [7] were 0% and 6%, respectively.

As for `C[C@H](CCCS(=O)(=O)O)[C@H]1CC[C@H]2[C@@H]3CC[C@@H]4C[C@H](O)CC[C@]4(C)[C@H]3CC[C@]12C`, the figures for the IC50 in assay [5] and in assay [8] were 18.5 µM and more than 1000 µM, respectively. The inhibition in assay [6] was found to be 100%; in assay [7], 5%; in assay [9] it was 40%. In addition, the outcome in [12] was Active. The Ratio IC50 in assay [13] is more than 54.

As for `C[C@H](CCCOS(=O)(=O)O)[C@H]1CC[C@H]2[C@@H]3CC[C@@H]4C[C@H](OS(=O)(=O)O)CC[C@]4(C)[C@H]3CC[C@]12C`, the values for the IC50 in [5] and in assay [8] were 21.5 µM and 402 µM, respectively. The results for the inhibition in assay [6], in assay [7] and in assay [9] were 100%, 90% and 100%, respectively. Moreover, in assay [14], the inhibition result is “inactive”. Moreover, the inhibition result in assay [15] and in [16] was “Active” throughout. Further, the result in assay [12] was Active. Further, the Ratio IC50 in [13] came out at 19.

Consider `C[C@H](CCC(=O)O)[C@H]1CC[C@H]2[C@@H]3C[C@H](O)[C@@H]4C[C@H](O)CC[C@]4(C)[C@H]3CC[C@]12C` [HYODEOXYCHOLIC_ACID], for which the figures for the IC50 in assay [5] and in [8] were more than 50 µM and more than 500 µM, respectively. For the same compound, the inhibition in assay [6] came out at 0%; in assay [7], 7%.

The record behind these values is ChEMBL document CHEMBL5634174, “Biological evaluation of sulfonate and sulfate analogues of lithocholic acid: A bioisosterism-guided approach towards the discovery of potential sialyltransferase inhibitors for antimetastatic study” (Bioorg Med Chem Lett, 2024).
